Source: ChEMBL document CHEMBL1154640, “Application of desirability-based multi(bi)-objective optimization in the design of selective arylpiperazine derivates for the 5-HT1A serotonin receptor” (Eur J Med Chem, 2009)

Key:
[1] = molecular target: T1, 5-hydroxytryptamine receptor 1A (Homo sapiens, UniProt P08908); test: Displacement of [3H]8-OH-DPAT from human recombinant 5-HT1A receptor expressed in HEK293 cells after 120 mins; assay type: cell-based
T1 sequence (P08908 whole entry): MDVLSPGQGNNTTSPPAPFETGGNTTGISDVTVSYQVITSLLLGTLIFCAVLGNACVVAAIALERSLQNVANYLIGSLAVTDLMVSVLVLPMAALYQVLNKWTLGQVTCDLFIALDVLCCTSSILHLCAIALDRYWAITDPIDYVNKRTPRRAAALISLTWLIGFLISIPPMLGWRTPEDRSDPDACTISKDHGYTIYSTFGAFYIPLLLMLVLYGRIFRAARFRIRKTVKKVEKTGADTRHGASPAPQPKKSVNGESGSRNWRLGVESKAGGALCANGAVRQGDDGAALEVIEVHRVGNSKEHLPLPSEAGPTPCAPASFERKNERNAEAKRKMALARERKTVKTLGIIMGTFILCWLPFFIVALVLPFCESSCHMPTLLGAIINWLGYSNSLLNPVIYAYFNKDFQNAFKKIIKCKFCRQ

[2] = molecular target: 5-hydroxytryptamine receptor 2A (Rattus norvegicus, UniProt P14842); test: Displacement of [3H]ketanserin from 5-HT2A receptor in Wistar Hannover rat brain cortex membrane
5-hydroxytryptamine receptor 2A, sequence (P14842 whole entry): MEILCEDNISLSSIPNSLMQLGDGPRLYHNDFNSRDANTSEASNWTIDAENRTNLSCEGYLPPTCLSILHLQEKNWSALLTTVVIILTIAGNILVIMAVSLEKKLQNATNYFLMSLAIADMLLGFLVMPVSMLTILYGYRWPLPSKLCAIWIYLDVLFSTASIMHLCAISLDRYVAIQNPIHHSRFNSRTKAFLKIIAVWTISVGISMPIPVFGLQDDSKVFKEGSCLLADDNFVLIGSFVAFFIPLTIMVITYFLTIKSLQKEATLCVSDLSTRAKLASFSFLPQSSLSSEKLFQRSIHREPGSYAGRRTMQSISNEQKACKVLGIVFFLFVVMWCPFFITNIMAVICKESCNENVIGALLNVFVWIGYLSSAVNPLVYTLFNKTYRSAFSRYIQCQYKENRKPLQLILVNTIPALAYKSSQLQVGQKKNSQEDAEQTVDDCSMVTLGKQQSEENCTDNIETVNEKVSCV

| Structure (SMILES) | Ki [1] [nM] | Ki [2] [nM] |
| --- | --- | --- |
| O=c1c2ccccc2c(=O)n(-c2ccccc2)n1CCCCN1CCN(c2cccc(Cl)c2)CC1 | 398 | 575 |
| O=c1ccc(=O)n(-c2ccccc2)n1CCCN1CCN(c2cccc(Cl)c2)CC1 | 204 | 269 |
| O=c1c2ccccc2ncn1CCCCN1CCN(c2cccc(Cl)c2)CC1 | 50.1 | 67.6 |
| COc1ccccc1N1CCN(CCCCn2c(=O)c3ccccc3c(=O)n2-c2ccccc2)CC1 | 42.7 | 372 |
| COc1ccccc1N1CCN(CCCn2c(=O)c3ccccc3c(=O)n2-c2ccccc2)CC1 | 30.2 | 302 |
| COc1ccccc1N1CCN(CCCCn2cnc3ccccc3c2=O)CC1 | 36.3 | 562 |
| O=c1c2ccccc2c(=O)n(-c2ccccc2)n1CCCN1CCN(c2cccc(Cl)c2)CC1 | 417 | 661 |
| COc1ccccc1N1CCN(CCCCn2c(=O)ccc(=O)n2-c2ccccc2)CC1 | 11 | 1450 |
| COc1ccccc1N1CCN(CCCn2c(=O)ccc(=O)n2-c2ccccc2)CC1 | 53.7 | 2140 |
| COc1ccccc1N1CCN(CCCn2cnc3ccccc3c2=O)CC1 | 100 | 457 |
| O=c1c2ccccc2ncn1CCCN1CCN(c2cccc(Cl)c2)CC1 | 234 | 15.8 |
| O=c1ccc(=O)n(-c2ccccc2)n1CCCCN1CCN(c2cccc(Cl)c2)CC1 | 50.1 | 1820 |
